Residues, ends and D or L forms follow the SMILES beside them.
Key:
[1] = system: piglets; test: Three point bending test (Instron 4302) of bones from piglets given AKG or Ala-Gln orally; type: in vivo, pig; conditions: for Bone ultimate strength (Wf) femur: piglets 35 days of postnatal life, 0.4 g/kg b.w. oral once a day
Method: (§1) All piglets suckled sow milk before weaning. After weaning at the age of 28 days piglets were fed ad libitum with a standard mixture Premix prestarter (PP) (Food plant-Motycz, Poland) and free access to water was allowed. Piglets were allotted to three experimental trials:
(§2) 2—Second group, receiving 0.4 g/kg/b.w. of L-alanyl-L-glutamine (ala-gln), (2 ml solution/kg b.w.)
(§3) Different parameters are used for defining and measuring the bone quality according to the invention. Used parameters are known to the skilled man in the art and are explained below: • 1) Maximum elastic strength measures the load, in Newtons (N), at […]. • 2) Ultimate strength measures the load, in Newtons (N), at […] of the bone. • 3) Cross-sectional area is the measure of the bone area on the cross section, in mm^2. • 4) Second moment of inertia is the measurement of the efficiency of the cross-sectional geometry to resist bending force, expressed in mm^4. • 5) Mean relative wall thickness is the wall thickness of the bone to its lumen. • 6) Bone mineral density (BMD) expresses the mineral content of the bone expressed in g/cm^2.
(§4) At the age of 35 days, piglets were sacrificed, eviscerated and bones were sampled.
Using Instron 4302 apparatus and applying three point bending test as presented in FIG. 1, the following properties of the bones were determined from curves showing the relation between load and deflection:
1) maximum elastic strength, Wy
4) maximum elastic deflection.

[2] = system: piglets; test: Architectural and geometric properties of bones from piglets given AKG or Ala-Gln orally; type: in vivo, pig; conditions: piglets 35 days, 0.4 g/kg b.w. oral, mean ± SEM
Method: as §1, §2, §3, §4
Architectural and geometric properties of bone were estimated based on measurements of horizontal and vertical cross section as well as interior and exterior diameter of the bone.
Mean relative wall thickness (MRWT) expresses the ratio of wall to lumen measures and serves as an indicator in the process of architectural adaptation of bone to physiological stress during the growth of the body. When the lumen increases with unchanged wall thickness the MRWT decreases but bone resistance to strain increases.

[3] = system: piglets; test: Growth (bodyweight) and bone mineralisation during postnatal life of the pig; type: in vivo
Method: as §1, §2, §4

[4] = system: postmenopausal women; conditions: Gynecol. Endocrinol. 7:201-205 (1993); cited from earlier work
[5] = system: turkeys; test: Ulna bone mineral density (DEXA) after fracture and neurectomy in the turkey; type: in vivo; conditions: group A, 0.8 g/kg oral
From the text: Turkeys are kept in common cages, 10 turkeys/cage. The turkeys have free access to water and are fed ad libitum.

[6] = system: ovariectomized rats; test: Femur bone mineral density in intact, shame operated and ovariectomized osteopenic female rats given AKG in drinking water; type: in vivo, Wistar rats; conditions: all three groups (INT, SHO, OVX), 60 days drinking water with AKG, p<0.01 in all groups
Method: 60 female Wistar rats at the age of 2 months and with an initial bodyweight of 200 g are used.
The animals are maintained in controlled conditions of 12/12 h dark/light ratio at 22° C.±2 and at 55%±2 humidity with free access to food and water.
The rats are divided into three groups (n=20), where Group 1 is shame operated, Group 2 is ovariectomized and Group 3 is intact, i.e. not operated at all.
On the day of surgery, all rats are anaesthetised with an intramuscular injection of ketamine and xylaline.
20 of the rats are shame-operated (SHO), where the ovaries are exteriorised and replaced intact.
The second group of ovariectomized rats (OVX) are submitted to ovariectomy from a dorsal approach.
Six months after ovariectomy, the animals from group 1 and 2, are divided into two additional sub-groups; one placebo and one experimental group.
After 60 days with placebo and experimental drinking water the rats are anaesthetised in CO2 and femur isolated for further analysis of bone mineral density.

[7] = ribs 4-9, piglets 35 days, 0.4 g/kg b.w. oral, mean ± SEM

## C[C@H](N)C(=O)N[C@@H](CCC(N)=O)C(=O)O [Ala-Gln, L-alanyl-L-glutamine] (H-Ala-Gln-OH)
[1]; mean ± SEM
  Bone ultimate strength (Wf) femur: 1075.0 ± 28.16 N
[1]; [7]
  Bone maximum elastic strength (Wy) (ribs 4-9): 442.9 ± 15.32 N
  Moment of ultimate strength ribs (4-9): 625.24 ± 1.5 ∇ N
  Ultimate strength (Wf) (ribs 4-9): 450.2 ± 22.1 N
[2]; femur
  Cross-sectional area (A) femur: 60.1 ± 2.59 * mm^2
  Second moment of inertia (Ix) femur: 492.8 ± 12.81 ∇ mm^4
[2]
  Cross-sectional area (A) humerus: 52.2 ± 2.48 * mm^2
[2]; ribs 4-9
  Cross sectional area (A) (ribs 4-9): 9.62 ± 0.33 mm^2
  Second moment of inertia (ribs 4-9): 10.88 ± 0.55 mm^4
[3]; day 14, control group always less than Ala-Gln group
  Bodyweight difference, day 14: about 690 g
[3]; day 21, control group always less than Ala-Gln group
  Bodyweight difference, day 21: about 419 g
[3]; day 35, control group always less than Ala-Gln group
  Bodyweight difference, day 35: about 313 g
[3]; day three of postnatal life, control group always less than Ala-Gln group
  Bodyweight difference, day three: about 96 g

## L-glutamine calcium monofluorophospate
[4]
  Increase in bone mineral density: 4.25%

## α-keto-glutaric sodium salt [AKG]
[1]; 5th rib, 35-days-old piglets, versus control
  Yielding stress of the 5th rib: significant increase
[1]; mean ± SEM
  Bone ultimate strength (Wf) femur: 1123.0 ± 75.09 N
[2]; femur
  Cross-sectional area (A) femur: 64.7 ± 3.82 * mm^2
[2]
  Cross-sectional area (A) humerus: 52.7 ± 4.1 * mm^2
[5]; left wing control (intact), p<0.01
  BMD of the ulna bone, difference compared to the saline treated turkeys: 25%
[5]; right wing experimental (neurectomized, fracture of the ulnae), p<0.055
  BMD of the ulna bone, AKG effect compared to the saline treated turkeys: about 11%
[6]
  BMD difference between the AKG treated rats and the placebo treated rats: about 10%
